Assay results from patent US8530493B2, “Indolopyridines as Eg5 kinesin modulators” (4SC AG, priority 2006, dated 2013).

Tests used:
[1] = system: RKO p27 or p21 uninduced (proliferating) colon adenocarcinoma cells; assay: Alamar Blue cell viability assay, RKO p27 or p21 uninduced (proliferating); assay type: cell-based; conditions: Homo sapiens, RKOp27, 72 h, Table B2, anti-proliferative/cytotoxic activity, read-out: −log EC50 RKO p27 or p21 uninduced (proliferating) (converted)
Summary of the method: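 RKO p21 or p27 subclones grown without Ponasterone A, i.e. proliferating, exposed 24 h after seeding to semi-log compound dilutions in DMEM/10% FCS (1% DMSO controls) for 72 h at 37° C. Alamar Blue fluorescence (544/590 nm) read relative to untreated cells; EC50 from dose-response curves, given as −log EC50 (mol/l).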

[2] = system: RKO p27 or p21 induced (arrested) colon adenocarcinoma cells; assay: Alamar Blue cell viability assay, RKO p27 or p21 induced (arrested); assay type: cell-based; conditions: Homo sapiens, RKOp27, Table B2, cells arrested by Ponasterone A, 72 hours, read-out: −log EC50 RKO p27 or p21 induced (arrested) (converted)
Summary of the method: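 RKOp21 or RKOp27 subclones in DMEM/10% FCS with 10 μM Ponasterone A to induce p21/p27 arrest, seeded 24 h before compound; triplicate 72 h exposure at 37 °C. Alamar Blue fluorescence (544/590 nm) as % of untreated (1% DMSO) cells; EC50 from dose-response curves, reported as −log EC50 (mol/l).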

Row | EC50 [2] [nM] | SMILES | EC50 [1] [nM]
1 | ≥ 316 | CC(=O)N1CCN(CCN2C(=O)N3[C@H](c4cccc(O)c4)c4[nH]c5ccc(Cl)cc5c4C[C@@]3(C)C2=O)CC1 (racemic) [Example 114, (3aSR,10RS)-2-[2-(4-Acetyl-piperazin-1-yl)-ethyl]-6-chloro-10-(3-hydroxy-phenyl)-3a-methyl-3a,4,9,10-tetrahydro-2,9,10a-triaza-cyclopenta[b]fluorene-1,3-dione] | ≤ 39.8
2 | ≥ 316 | C=CCNCCN1C(=O)N2[C@H](c3cccc(O)c3)c3[nH]c4ccc(Cl)cc4c3C[C@@]2(C)C1=O (racemic) [Example 115, (3aSR,10RS)-2-(2-Allylamino-ethyl)-6-chloro-10-(3-hydroxy-phenyl)-3a-methyl-3a,4,9,10-tetrahydro-2,9,10a-triaza-cyclopenta[b]fluorene-1,3-dione] | ≤ 39.8
3 | ≥ 316 | C#CCN(C)CCN1C(=O)N2[C@H](c3cccc(O)c3)c3[nH]c4ccc(Cl)cc4c3C[C@@]2(C)C1=O (racemic) [Example 116, (3aSR,10RS)-6-Chloro-10-(3-hydroxy-phenyl)-3a-methyl-2-[2-(methyl-prop-2-ynyl-amino)-ethyl]-3a,4,9,10-tetrahydro-2,9,10a-triaza-cyclopenta[b]fluorene-1,3-dione] | 39.8 to 251
4 | ≥ 316 | C=CCN(C)CCN1C(=O)N2[C@H](c3cccc(O)c3)c3[nH]c4ccc(Cl)cc4c3C[C@@]2(C)C1=O (racemic) [Example 117, (3aSR,10RS)-2-[2-(Allyl-methyl-amino)-ethyl]-6-chloro-10-(3-hydroxy-phenyl)-3a-methyl-3a,4,9,10-tetrahydro-2,9,10a-triaza-cyclopenta[b]fluorene-1,3-dione] | ≤ 39.8
5 | ≥ 316 | COc1ccc2[nH]c3c(c2c1)C[C@@]1(C)C(=O)N(CCN(C)CCO)C(=O)N1[C@@H]3c1cccc(O)c1 (racemic) [Example 118, (3aSR,10RS)-2-{2-[(2-Hydroxy-ethyl)-methyl-amino]-ethyl}-10-(3-hydroxy-phenyl)-6-methoxy-3a-methyl-3a,4,9,10-tetrahydro-2,9,10a-triaza-cyclopenta[b]fluorene-1,3-dione] | ≤ 39.8
6 | ≥ 316 | COc1ccc2[nH]c3c(c2c1)C[C@@]1(C)C(=O)N(CCN2CC=CC2)C(=O)N1[C@@H]3c1cccc(O)c1 (racemic) [Example 119, (3aSR,10RS)-2-[2-(2,5-Dihydro-pyrrol-1-yl)-ethyl]-10-(3-hydroxy-phenyl)-6-methoxy-3a-methyl-3a,4,9,10-tetrahydro-2,9,10a-triaza-cyclopenta[b]fluorene-1,3-dione] | ≤ 39.8
7 | ≥ 316 | C[C@@]12Cc3c([nH]c4ccc(Cl)cc34)[C@@H](c3cccc(O)c3)N1C(=O)N(CCN1CCOCC1)C2=O (racemic) [Example 120, (3aSR,10RS)-6-Chloro-10-(3-hydroxy-phenyl)-3a-methyl-2-(2-morpholin-4-ylethyl)-3a,4,9,10-tetrahydro-2,9,10a-triaza-cyclopenta[b]fluorene-1,3-dione] | 39.8 to 251
8 | ≥ 316 | CCN(CCOC)CCN1C(=O)N2[C@H](c3cccc(O)c3)c3[nH]c4ccc(Cl)cc4c3C[C@@]2(C)C1=O (racemic) [Example 121, (3aSR,10RS)-6-Chloro-2-{2-[ethyl-(2-methoxy-ethyl)-amino]-ethyl}-10-(3-hydroxy-phenyl)-3a-methyl-3a,4,9,10-tetrahydro-2,9,10a-triaza-cyclopenta[b]fluorene-1,3-dione] | 39.8 to 251
9 | ≥ 316 | C[C@@]12Cc3c([nH]c4ccc(Cl)cc34)[C@@H](c3cccc(O)c3)N1C(=O)N(CCNCC(F)F)C2=O (racemic) [Example 123, (3aSR,10RS)-6-Chloro-2-[2-(2,2-difluoro-ethylamino)-ethyl]-10-(3-hydroxy-phenyl)-3a-methyl-3a,4,9,10-tetrahydro-2,9,10a-triaza-cyclopenta[b]fluorene-1,3-dione] | 39.8 to 251
10 | ≥ 316 | CCN(CCO)CCN1C(=O)N2[C@H](c3cccc(O)c3)c3[nH]c4ccc(Cl)cc4c3C[C@@]2(C)C1=O (racemic) [Example 124, (3aSR,10RS)-6-Chloro-2-{2-[ethyl-(2-hydroxy-ethyl)-amino]-ethyl}-10-(3-hydroxy-phenyl)-3a-methyl-3a,4,9,10-tetrahydro-2,9,10a-triaza-cyclopenta[b]fluorene-1,3-dione] | ≤ 39.8
11 | ≥ 316 | Cn1ccc(NCCN2C(=O)N3[C@H](c4cccc(O)c4)c4[nH]c5ccc(Cl)cc5c4C[C@@]3(C)C2=O)n1 (racemic) [Example 125, (3aSR,10RS)-6-Chloro-10-(3-hydroyx-phenyl)-3a-methyl-2-[2-(1-methyl-1H-pyrazol-3-ylamino)-ethyl]-3a,4,9,10-tetrahydro-2,9,10a-triaza-cyclopenta[b]fluorene-1,3-dione] | 39.8 to 251
12 | ≥ 316 | CN(CCO)CCN1C(=O)N2[C@H](c3cccc(O)c3)c3[nH]c4ccc(Cl)cc4c3C[C@@]2(C)C1=O (racemic) [Example 126, (3aSR,10RS)-6-Chloro-2-{2-[(2-hydroxy-ethyl)-methyl-amino]-ethyl}-10-(3-hydroxy-phenyl)-3a-methyl-3a,4,9,10-tetrahydro-2,9,10a-triaza-cyclopenta[b]fluorene-1,3-dione] | ≤ 39.8
13 | ≥ 316 | C#CCNCCN1C(=O)N2[C@H](c3cccc(O)c3)c3[nH]c4ccc(Cl)cc4c3C[C@@]2(C)C1=O (racemic) [Example 127, (3aSR,10RS)-6-Chloro-10-(3-hydroxy-phenyl)-3a-methyl-2-(2-prop-2-ynylamino-ethyl)-3a,4,9,10-tetrahydro-2,9,10a-triaza-cyclopenta[b]fluorene-1,3-dione] | ≤ 39.8
14 | ≥ 316 | COCCNCCN1C(=O)N2[C@H](c3cccc(O)c3)c3[nH]c4ccc(Cl)cc4c3C[C@@]2(C)C1=O (racemic) [Example 128, (3aSR,10RS)-6-Chloro-10-(3-hydroxy-phenyl)-2-[2-(2-methoxy-ethylamino)-ethyl]-3a-methyl-3a,4,9,10-tetrahydro-2,9,10a-triaza-cyclopenta[b]fluorene-1,3-dione] | ≤ 39.8
15 | ≥ 316 | C[C@@]12Cc3c([nH]c4ccc(Cl)cc34)[C@@H](c3cccc(O)c3)N1C(=O)N(CCN1CCC(F)(F)C1)C2=O (racemic) [Example 129, (3aSR,10RS)-6-Chloro-2-[2-(3,3-difluoro-pyrrolidin-1-yl)-ethyl]-10-(3-hydroxy-phenyl)-3a-methyl-3a,4,9,10-tetrahydro-2,9,10a-triaza-cyclopenta[b]fluorene-1,3-dione] | 39.8 to 251
16 | ≥ 316 | CNCCCN1C(=O)N2[C@H](c3cccc(O)c3)c3[nH]c4ccc(Cl)cc4c3C[C@@]2(C)C1=O (racemic) [Example 130, (3aSR,10RS)-6-Chloro-10-(3-hydroxy-phenyl)-3a-methyl-2-(3-methylamino-propyl)-3a,4,9,10-tetrahydro-2,9,10a-triaza-cyclopenta[b]fluorene-1,3-dione] | ≤ 39.8
17 | ≥ 316 | CCNCCCN1C(=O)N2[C@H](c3cccc(O)c3)c3[nH]c4ccc(Cl)cc4c3C[C@@]2(C)C1=O (racemic) [Example 131, (3aSR,10RS)-6-Chloro-2-(3-ethylamino-propyl)-10-(3-hydroxy-phenyl)-3a-methyl-3a,4,9,10-tetrahydro-2,9,10a-triaza-cyclopenta[b]fluorene-1,3-dione] | ≤ 39.8
18 | ≥ 316 | CN(CCO)CCCN1C(=O)N2[C@H](c3cccc(O)c3)c3[nH]c4ccc(Cl)cc4c3C[C@@]2(C)C1=O (racemic) [Example 132, (3aSR,10RS)-6-Chloro-2-{3-[(2-hydroxy-ethyl)-methyl-amino]-propyl}-10-(3-hydroxy-phenyl)-3a-methyl-3a,4,9,10-tetrahydro-2,9,10a-triaza-cyclopenta[b]fluorene-1,3-dione] | ≤ 39.8
19 | ≥ 316 | CC(C)N(C)CCCN1C(=O)N2[C@H](c3cccc(O)c3)c3[nH]c4ccc(Cl)cc4c3C[C@@]2(C)C1=O (racemic) [Example 133, (3aSR,10RS)-6-Chloro-10-(3-hydroxy-phenyl)-2-[3-(isopropyl-methyl-amino)-propyl]-3a-methyl-3a,4,9,10-tetrahydro-2,9,10a-triaza-cyclopenta[b]fluorene-1,3-dione] | ≤ 39.8
20 | ≥ 3160 | CC(C)CNCCCN1C(=O)N2[C@H](c3cccc(O)c3)c3[nH]c4ccc(Cl)cc4c3C[C@@]2(C)C1=O (racemic) [Example 135, (3aSR,10RS)-6-Chloro-10-(3-hydroxy-phenyl)-2-(3-isobutylamino-propyl)-3a-methyl-3a,4,9,10-tetrahydro-2,9,10a-triaza-cyclopenta[b]fluorene-1,3-dione] | ≤ 39.8
21 | ≥ 3160 | C#CC(C)NCCCN1C(=O)N2[C@H](c3cccc(O)c3)c3[nH]c4ccc(Cl)cc4c3C[C@@]2(C)C1=O (mixture of isomers) [Example 136, (3aSR,10RS)-6-Chloro-10-(3-hydroxy-phenyl)-3a-methyl-2-[3-((R and S)1-methyl-prop-2-ynylamino)-propyl]-3a,4,9,10-tetrahydro-2,9,10a-triaza-cyclopenta[b]fluorene-1,3-dione] | ≤ 39.8
